Test system: B16-SIY cells
Assay: Unaffected fraction (synergy) analysis of tumor growth inhibition of combination therapies
Type: in vivo, C57BL/6 mice
Conditions: for Predicted TGI: expected for purely additive effect
Method: Treatment was initiated on day 4 post tumor inoculation with the following regimens for each drug. αCTLA-4 antibody (clone UC10-4F10-11, Bio-X-Cell) was given i.p. on day 4, 7 and 10 at a dose of 100 μg/mouse. αPD-L1 antibody (clone 10F.9G2, Bio-X-Cell) was given i.p. (100 μg/mouse) every other day starting on day 4 ending on day 16 post tumor inoculation. IDOi (INCB23843, Incyte Corporation) was dissolved in 0.5% methylcellulose and administered at 300 mg/kg po QD on a 5 days on/2 days off schedule starting on day 4. In the case of functional experiments with an earlier endpoint, treatment regimens were carried out as described until the day of T cell analysis. A comparison between IDOi and IDOc (INCB24360, Incyte Corporation) was perfomed according to the treatment regime described above. Tumor outgrowth was followed starting day 7 onwards and is depicted in combination with anti-CTLA4 (FIG. 18A) or anti-PD-L1 (FIG. 18B). N=5 mice per group, and a two-way Anova test was used to determine significance between the groups.
Treatment was administered in the same fashion as described for FIG. 9, with the exception that IDOi (INCB23843) was replaced by IDOc (INCB24360) in the indicated groups.
Synergy analysis was performed with day 15 data and with day 23 data. Actual tumor growth inhibition (TGI) is the experimental TGI seen in this experiment for the combinations, and predicted TGI is the TGI that would have been expected for a purely additive combination effect from the performance of the individual agents in this experiment. Actual TGIs higher than predicted TGIs reflect better than additive (synergistic) data.

[1] = Day 15 (end of dosing), in combination with anti CTLA4
[2] = Day 15 (end of dosing), in combination with antiPDL1
[3] = Day 23 (last day of vehicles), in combination with anti CTLA4
[4] = Day 23 (last day of vehicles), in combination with antiPDL1

NS(=O)(=O)NCCNc1nonc1/C(=N/O)Nc1ccc(F)c(Br)c1 [IDOc]
Actual TGI [1]: 74%
Predicted TGI [1]: 66%
Actual TGI [2]: 81%
Predicted TGI [2]: 24%
Actual TGI [3]: 93%
Predicted TGI [3]: 65%
Actual TGI [4]: 82%
Predicted TGI [4]: 35%

From patent US10967060B2, “Synergistic combination of immunologic inhibitors for the treatment of cancer” (The University of Chicago, priority 2012, dated 2021)
